{
  "source": "patent US6951873B1",
  "about": "“Methods for treating age-related behavioral disorders in companion animals” (priority 1999, dated 2005)",
  "origin": "cited, not measured here",
  "test_system": "aged-impaired dogs",
  "conditions": "spatial memory model sensitive to age-dependent cognitive impairment",
  "data": [
    {"smiles": "C#CCN(C)[C@H](C)Cc1ccccc1.Cl", "note": "[selegiline chloride]", "values": [
      {"measurement": "Performance of aged-impaired dogs on this test", "result": "improved"}
    ]}
  ]
}
